For series [1] the following is noted: 25° C., reported by Sigma-Aldrich; cited from earlier work.
Series [2] has as its system Clostridium difficile (strain VPI 10463 (ATCC-43255)). In words: Mouse model of Clostridium difficile infection, disease-associated phenotypes. The class given is in vivo. Here is the method:
This experiment was conducted to analyze the effects of glycan therapeutics in a mouse model of Clostridium difficile infection (Chen et al, 2008, A Mouse Model of Clostridium difficile—Associated Disease. Gastroenterology 135(6), 1984-1992). In this model, normal mice were exposed to an antibiotic regimen that renders them susceptible to C. difficile infection and disease symptoms, similar with respect to their development and manifestation of human clinical disease. In humans, the disease is most often the result of exposure to broad spectrum antibiotics which is thought to result in intestinal dysbiosis and subsequent increased colonic colonization with C. difficile. The increased bio-burden of C. difficile leads to toxin production by the bacterium and colonic inflammation. Clinical manifestations in humans include diarrhea, weight loss, intestinal inflammation, fever and dehydration. The clinical incidence of C. difficile infection and disease is about 750,000 cases per year in the US.
(§1) Mice (female C57BL/6, 8-10 weeks old, 16-18 grams each; Harlan Laboratories, Indianapolis, Ind.) were housed in groups of 3 per cage, with 4 cages per treatment group. Mice were exposed to a cocktail of antibiotics in their drinking water for a period of 9 days, starting on day −14, fourteen days before Clostridium difficile challenge on day 0. The antibiotic cocktail consisted of 1% glucose, kanamycin (0.5 mg/ml), gentamicin (0.044 mg/ml), colistin (1062.5 U/ml), metronidazole (0.269 mg/ml), ciprofloxacin (0.156 mg/ml), ampicillin (0.1 mg/ml) and vancomycin (0.056 mg/ml). Three days prior to Clostridium difficile challenge (on Day −3), mice received a single dose of clindamycin (10 mg/kg) in a volume of 0.5 mL distilled water by oral gavage (PO) (see Table 10). All chemicals were purchased from Sigma-Aldrich Corp. (St. Louis, Mo.). On day 0, mice were challenged with Clostridium difficile (strain VPI 10463 (ATCC-43255)) spores at approximately 4.5 log10 spores per mouse, PO, in a dose volume of 0.5 mL distilled water.
Disease-associated phenotypes were recorded for a duration of ten days starting on the day of Clostridium difficile challenge (on day 0) through day 10. The phenotypes, including lethargy, hunched posture and ruffled coat, wet tail/abdomen and hypothermia were scored from 0 to 4: Normal=0; Lethargic=1; Lethargic+Hunched=2; Lethargic+Hunched+Wet tail/abdomen (diarrhea)=3; and Lethargic+Hunched+Wet tail/abdomen+Hypothermic=4. Death (day 0 to day 10 or 11) and weight (day 1 to day 7 and day 10) of the animals was also monitored and recorded.
In these studies, all animals with wet tail/abdomen (diarrhea; clinical score of “3”) progressed to death. Diarrhea is an indication of colonic inflammation and hemorrhage and is a contributing factor to the weight loss seen in rodent models of C. difficile colonization/infection.
A treatment's ability to protect animals from death through day 6 in these experiments indicates disease prevention, e.g., in a human.
In addition, carriage of Clostridium difficile spores, which is indicative of Clostridium difficile gut colonization in both mice and humans, was assessed daily from day 0 to day 6. For spore CFU enumeration, fecal pellets from the mice were suspended in 50% ethanol in phosphate-buffered saline (PBS) and vortexed. […]
Effects of treatments was assessed by comparing the disease-associated phenotypes in glycan-treated, untreated (plain water) and vancomycin-treated groups. […]

The next series has as its system gut microbiota. In words: Mouse model of Clostridium difficile infection, gut microbiota 16S rRNA sequencing. The following applies: Day 6; predicted from 16S rRNA sequencing using PICRUST. The class given is in vivo. Here is the method: as §1
To determine how the gut microbiota composition responds to treatment with glycan therapeutics, 16S rRNA sequencing of fecal pellets on the V4 variable region using standard protocols from the Earth Microbiome Project was performed (www.earthmicrobiome.org/emp-standard-protocols/). […]

Values after ≈ are worked out from the molar mass of the structure shown.

For `O=C[C@H](O)[C@@H](O)[C@H](O)[C@H](O)CO` [D-glucose], in series [1], the aqueous solubility (commonly the concentration that dissolves in the medium under given conditions) was 909 mg/mL (≈ 5050 mM) and the “aqueous solubility as Brix” value is 48 Brix.
For `CN[C@H](CC(C)C)C(=O)N[C@H]1C(=O)N[C@@H](CC(N)=O)C(=O)N[C@H]2C(=O)N[C@H]3C(=O)N[C@H](C(=O)N[C@H](C(=O)O)c4cc(O)cc(O)c4-c4cc3ccc4O)[C@H](O)c3ccc(c(Cl)c3)Oc3cc2cc(c3O[C@@H]2O[C@H](CO)[C@@H](O)[C@H](O)[C@H]2O[C@H]2C[C@](C)(N)[C@H](O)[C@H](C)O2)Oc2ccc(cc2Cl)[C@H]1O` [vancomycin], in series [2] (PO gavage QD days 0 to 4), the “animals died by day 10” value turned out to be 17% and the “animals survived to day 7” value stood at 100%. Also, the “clinical score of survivors (0 to 4)” value in series [2] (after treatments were discontinued, through day 10 or 11) is reported as “above 0”. In addition, in series [2] (days 0-6), the “C. difficile spores in the feces” value is “no detectable spores”. For the same compound, the “clinical signs on day 10” value in series [2] (mouse, in vivo) is reported as “exhibited clinical signs”. Further, the “predicted functional potential of the gut microbiome to convert primary bile acids to secondary bile acids” value in the series on gut microbiota is listed as “not observed”.

These data come from patent publication US20170151268A1, “GLYCAN THERAPEUTICS AND RELATED METHODS THEREOF” (KALEIDO BIOSCIENCES, INC., priority 2015, published 2017).
